In US6358885B1, “Substituted phenylheterocyclic herbicides” (Mississippi State University, priority 1992, dated 2002):

Tests used:
[1] = tested on: Japonica rice; test: Test D paddy water application plant response rating 0 to 100; format: in vivo, Oryza sativa; conditions: approx. 21 days
Text: (§1) Plastic pots were partially filled with silt loam soil. The soil was then saturated with water. […] After planting, water levels were raised to 3 cm above the soil surface and maintained at this level throughout the test. Chemical treatments were formulated in a non-phytotoxic solvent and applied directly to the paddy water. Treated plants and controls were maintained in a greenhouse for approximately 21 days, after which all species were compared to controls and visually evaluated. […] A dash (-) response means no test result.

[2] = tested on: barnyardgrass; test: as above; format: in vivo, Echinochloa crus-galli; conditions: approx. 21 days
Text: as §1

[3] = tested on: duck salad; test: as above; format: in vivo, Heteranthera limosa; conditions: approx. 21 days
Text: as §1

[4] = tested on: umbrella sedge; test: as above; format: in vivo, Cyperus difformis; conditions: approx. 21 days
Text: as §1

[5] = tested on: arrowhead; test: as above; format: in vivo, Sagittaria spp.; conditions: approx. 21 days
Text: as §1

[6] = tested on: waterchestnut; test: as above; format: in vivo, Eleocharis spp.; conditions: approx. 21 days
Text: as §1

[7] = tested on: Japonica rice; test: Test E paddy water application plant response rating 0 to 100; format: in vivo, oryza sativa; conditions: Flood, 0 to 100 scale, approx. 21 days
Text: (§2) Plastic pots were partially filled with silt loam soil. […] At testing, the water level for all plantings was raised to 2 cm above the soil surface. Chemical treatments were formulated in a non-phytotoxic solvent and applied directly to the paddy water. Treated plants and controls were maintained in a greenhouse for approximately 21 days, after which all species were compared to controls and visually evaluated. […] A dash (-) response means no test result.

[8] = tested on: barnyardgrass; test: as above; format: in vivo, Echinochloa crus-galli; conditions: Flood, 0 to 100 scale, approx. 21 days
Text: as §2

[9] = Rate 500 g/ha, 0 to 100 scale (0 no effect, 100 complete control)

C#CCN1C(=O)COc2cc(F)c(-c3nn4c(c3Cl)CCCC4)cc21 [Compound 34]
Japonica rice plant response rating ([1]; Rate 4 g/ha, 0 to 100 scale): 20 | Japonica rice plant response rating ([1]; Rate 8 g/ha, 0 to 100 scale): 30 | Japonica rice plant response rating ([1]; Rate 16 g/ha, 0 to 100 scale): 55 | Japonica rice plant response rating ([1]; Rate 32 g/ha, 0 to 100 scale): 40 | Japonica rice plant response rating ([1]; Rate 64 g/ha, 0 to 100 scale): 50 | Barnyardgrass 2 plant response rating ([2]; Rate 4 g/ha, 0 to 100 scale): 0 | Barnyardgrass 2 plant response rating ([2]; Rate 8 g/ha, 0 to 100 scale): 10 | Barnyardgrass 2 plant response rating ([2]; Rate 16 g/ha, 0 to 100 scale): 20 | Barnyardgrass 2 plant response rating ([2]; Rate 32 g/ha, 0 to 100 scale): 30 | Barnyardgrass 2 plant response rating ([2]; Rate 64 g/ha, 0 to 100 scale): 50 | Duck salad plant response rating ([3]; Rate 4 g/ha, 0 to 100 scale): 0 | Duck salad plant response rating ([3]; Rate 8 g/ha, 0 to 100 scale): 0 | Duck salad plant response rating ([3]; Rate 16 g/ha, 0 to 100 scale): 0 | Duck salad plant response rating ([3]; Rate 32 g/ha, 0 to 100 scale): 0 | Duck salad plant response rating ([3]; Rate 64 g/ha, 0 to 100 scale): 60 | Umbrella sedge plant response rating ([4]; Rate 4 g/ha, 0 to 100 scale): 0 | Umbrella sedge plant response rating ([4]; Rate 8 g/ha, 0 to 100 scale): 20 | Umbrella sedge plant response rating ([4]; Rate 16 g/ha, 0 to 100 scale): 50 | Umbrella sedge plant response rating ([4]; Rate 32 g/ha, 0 to 100 scale): 70 | Umbrella sedge plant response rating ([4]; Rate 64 g/ha, 0 to 100 scale): 80 | Arrowhead plant response rating ([5]; Rate 4 g/ha, 0 to 100 scale): 85 | Arrowhead plant response rating ([5]; Rate 8 g/ha, 0 to 100 scale): 90 | Arrowhead plant response rating ([5]; Rate 16 g/ha, 0 to 100 scale): 90 | Arrowhead plant response rating ([5]; Rate 32 g/ha, 0 to 100 scale): 100 | Arrowhead plant response rating ([5]; Rate 64 g/ha, 0 to 100 scale): 100 | Waterchestnut plant response rating ([6]; Rate 4 g/ha, 0 to 100 scale): 20 | Waterchestnut plant response rating ([6]; Rate 8 g/ha, 0 to 100 scale): 20 | Waterchestnut plant response rating ([6]; Rate 32 g/ha, 0 to 100 scale): 20 | Waterchestnut plant response rating ([6]; Rate 64 g/ha, 0 to 100 scale): 20 | Japonica 1 plant response rating ([7]; Rate 16 g/ha): 75 | Japonica 2 plant response rating ([7]; Rate 16 g/ha): 25 | Japonica 1 plant response rating ([7]; Rate 32 g/ha): 85 | Japonica 2 plant response rating ([7]; Rate 32 g/ha): 30 | Japonica 1 plant response rating ([7]; Rate 64 g/ha): 95 | Japonica 2 plant response rating ([7]; Rate 64 g/ha): 45 | Japonica 1 plant response rating ([7]; Rate 125 g/ha): 98 | Japonica 2 plant response rating ([7]; Rate 125 g/ha): 60 | Japonica 1 plant response rating ([7]; Rate 250 g/ha): 100 | Japonica 2 plant response rating ([7]; Rate 250 g/ha): 95 | Barnyardgrass 2 plant response rating ([8]; Rate 16 g/ha): 85 | Barnyardgrass 3 plant response rating ([8]; Rate 16 g/ha): 35 | Barnyardgrass 2 plant response rating ([8]; Rate 32 g/ha): 90 | Barnyardgrass 3 plant response rating ([8]; Rate 32 g/ha): 45 | Barnyardgrass 2 plant response rating ([8]; Rate 64 g/ha): 95 | Barnyardgrass 3 plant response rating ([8]; Rate 64 g/ha): 45 | Barnyardgrass 2 plant response rating ([8]; Rate 125 g/ha): 100 | Barnyardgrass 3 plant response rating ([8]; Rate 125 g/ha): 50 | Barnyardgrass 2 plant response rating ([8]; Rate 250 g/ha): 100 | Barnyardgrass 3 plant response rating ([8]; Rate 250 g/ha): 95

C=CCN1C(=O)COc2cc(F)c(-c3nn4c(c3Br)CCCC4)cc21 [Compound 41]
Japonica 1 plant response rating ([7]; Rate 8 g/ha): 25 | Japonica 2 plant response rating ([7]; Rate 8 g/ha): 15 | Japonica 1 plant response rating ([7]; Rate 16 g/ha): 35 | Japonica 2 plant response rating ([7]; Rate 16 g/ha): 20 | Japonica 1 plant response rating ([7]; Rate 32 g/ha): 45 | Japonica 2 plant response rating ([7]; Rate 32 g/ha): 30 | Japonica 1 plant response rating ([7]; Rate 64 g/ha): 65 | Japonica 2 plant response rating ([7]; Rate 64 g/ha): 45 | Japonica 1 plant response rating ([7]; Rate 125 g/ha): 95 | Japonica 2 plant response rating ([7]; Rate 125 g/ha): 55 | Barnyardgrass 2 plant response rating ([8]; Rate 8 g/ha): 25 | Barnyardgrass 3 plant response rating ([8]; Rate 8 g/ha): 20 | Barnyardgrass 2 plant response rating ([8]; Rate 16 g/ha): 30 | Barnyardgrass 3 plant response rating ([8]; Rate 16 g/ha): 25 | Barnyardgrass 2 plant response rating ([8]; Rate 32 g/ha): 55 | Barnyardgrass 3 plant response rating ([8]; Rate 32 g/ha): 35 | Barnyardgrass 2 plant response rating ([8]; Rate 64 g/ha): 65 | Barnyardgrass 3 plant response rating ([8]; Rate 64 g/ha): 45 | Barnyardgrass 2 plant response rating ([8]; Rate 125 g/ha): 98 | Barnyardgrass 3 plant response rating ([8]; Rate 125 g/ha): 55

Fc1cc(Cl)ccc1-c1nn2c(c1Br)CCCC2 [Compound 52]
Japonica rice plant response rating ([1]; Rate 32 g/ha, 0 to 100 scale): 20 | Japonica rice plant response rating ([1]; Rate 64 g/ha, 0 to 100 scale): 20 | Japonica rice plant response rating ([1]; Rate 125 g/ha, 0 to 100 scale): 25 | Japonica rice plant response rating ([1]; Rate 250 g/ha, 0 to 100 scale): 25 | Japonica rice plant response rating [1, 9]: 30 | Barnyardgrass 2 plant response rating ([2]; Rate 32 g/ha, 0 to 100 scale): 100 | Barnyardgrass 2 plant response rating ([2]; Rate 64 g/ha, 0 to 100 scale): 100 | Barnyardgrass 2 plant response rating ([2]; Rate 125 g/ha, 0 to 100 scale): 100 | Barnyardgrass 2 plant response rating ([2]; Rate 250 g/ha, 0 to 100 scale): 100 | Barnyardgrass 2 plant response rating [2, 9]: 100 | Duck salad plant response rating ([3]; Rate 32 g/ha, 0 to 100 scale): 0 | Duck salad plant response rating ([3]; Rate 64 g/ha, 0 to 100 scale): 10 | Duck salad plant response rating ([3]; Rate 125 g/ha, 0 to 100 scale): 80 | Duck salad plant response rating ([3]; Rate 250 g/ha, 0 to 100 scale): 80 | Duck salad plant response rating [3, 9]: 100 | Umbrella sedge plant response rating ([4]; Rate 32 g/ha, 0 to 100 scale): 0 | Umbrella sedge plant response rating ([4]; Rate 64 g/ha, 0 to 100 scale): 0 | Umbrella sedge plant response rating ([4]; Rate 125 g/ha, 0 to 100 scale): 20 | Umbrella sedge plant response rating ([4]; Rate 250 g/ha, 0 to 100 scale): 50 | Umbrella sedge plant response rating [4, 9]: 80 | Arrowhead plant response rating ([5]; Rate 32 g/ha, 0 to 100 scale): 10 | Arrowhead plant response rating ([5]; Rate 64 g/ha, 0 to 100 scale): 10 | Arrowhead plant response rating ([5]; Rate 125 g/ha, 0 to 100 scale): 40 | Arrowhead plant response rating ([5]; Rate 250 g/ha, 0 to 100 scale): 30 | Arrowhead plant response rating [5, 9]: 40 | Waterchestnut plant response rating ([6]; Rate 32 g/ha, 0 to 100 scale): 0 | Waterchestnut plant response rating ([6]; Rate 64 g/ha, 0 to 100 scale): 15 | Waterchestnut plant response rating ([6]; Rate 125 g/ha, 0 to 100 scale): 25 | Waterchestnut plant response rating ([6]; Rate 250 g/ha, 0 to 100 scale): 40 | Waterchestnut plant response rating [6, 9]: 65 | Japonica 1 plant response rating ([7]; Rate 8 g/ha): 0 | Japonica 2 plant response rating ([7]; Rate 8 g/ha): 10 | Japonica 1 plant response rating ([7]; Rate 16 g/ha): 10 | Japonica 2 plant response rating ([7]; Rate 16 g/ha): 15 | Japonica 1 plant response rating ([7]; Rate 32 g/ha): 20 | Japonica 2 plant response rating ([7]; Rate 32 g/ha): 20 | Japonica 1 plant response rating ([7]; Rate 64 g/ha): 35 | Japonica 2 plant response rating ([7]; Rate 64 g/ha): 25 | Japonica 1 plant response rating ([7]; Rate 125 g/ha): 55 | Japonica 2 plant response rating ([7]; Rate 125 g/ha): 40 | Barnyardgrass 2 plant response rating ([8]; Rate 8 g/ha): 40 | Barnyardgrass 3 plant response rating ([8]; Rate 8 g/ha): 35 | Barnyardgrass 2 plant response rating ([8]; Rate 16 g/ha): 45 | Barnyardgrass 3 plant response rating ([8]; Rate 16 g/ha): 55 | Barnyardgrass 2 plant response rating ([8]; Rate 32 g/ha): 100 | Barnyardgrass 3 plant response rating ([8]; Rate 32 g/ha): 65 | Barnyardgrass 2 plant response rating ([8]; Rate 64 g/ha): 100 | Barnyardgrass 3 plant response rating ([8]; Rate 64 g/ha): 100 | Barnyardgrass 2 plant response rating ([8]; Rate 125 g/ha): 100 | Barnyardgrass 3 plant response rating ([8]; Rate 125 g/ha): 100

CC(C)N1C(=O)COc2cc(F)c(-c3nn4c(c3Cl)CCCC4)cc21 [Compound 31]
Japonica rice plant response rating ([1]; Rate 4 g/ha, 0 to 100 scale): 10 | Japonica rice plant response rating ([1]; Rate 8 g/ha, 0 to 100 scale): 15 | Japonica rice plant response rating ([1]; Rate 16 g/ha, 0 to 100 scale): 20 | Japonica rice plant response rating ([1]; Rate 32 g/ha, 0 to 100 scale): 25 | Japonica rice plant response rating ([1]; Rate 64 g/ha, 0 to 100 scale): 30 | Barnyardgrass 2 plant response rating ([2]; Rate 4 g/ha, 0 to 100 scale): 0 | Barnyardgrass 2 plant response rating ([2]; Rate 8 g/ha, 0 to 100 scale): 0 | Barnyardgrass 2 plant response rating ([2]; Rate 16 g/ha, 0 to 100 scale): 30 | Barnyardgrass 2 plant response rating ([2]; Rate 32 g/ha, 0 to 100 scale): 40 | Barnyardgrass 2 plant response rating ([2]; Rate 64 g/ha, 0 to 100 scale): 60 | Duck salad plant response rating ([3]; Rate 4 g/ha, 0 to 100 scale): 0 | Duck salad plant response rating ([3]; Rate 8 g/ha, 0 to 100 scale): 0 | Duck salad plant response rating ([3]; Rate 16 g/ha, 0 to 100 scale): 0 | Duck salad plant response rating ([3]; Rate 32 g/ha, 0 to 100 scale): 0 | Duck salad plant response rating ([3]; Rate 64 g/ha, 0 to 100 scale): 0 | Umbrella sedge plant response rating ([4]; Rate 4 g/ha, 0 to 100 scale): 0 | Umbrella sedge plant response rating ([4]; Rate 8 g/ha, 0 to 100 scale): 0 | Umbrella sedge plant response rating ([4]; Rate 16 g/ha, 0 to 100 scale): 20 | Umbrella sedge plant response rating ([4]; Rate 32 g/ha, 0 to 100 scale): 65 | Umbrella sedge plant response rating ([4]; Rate 64 g/ha, 0 to 100 scale): 75 | Arrowhead plant response rating ([5]; Rate 4 g/ha, 0 to 100 scale): 50 | Arrowhead plant response rating ([5]; Rate 8 g/ha, 0 to 100 scale): 60 | Arrowhead plant response rating ([5]; Rate 16 g/ha, 0 to 100 scale): 85 | Arrowhead plant response rating ([5]; Rate 32 g/ha, 0 to 100 scale): 100 | Arrowhead plant response rating ([5]; Rate 64 g/ha, 0 to 100 scale): 100
